The values below are quoted from earlier work in patent US20240277615A1, “SELF-EMULSIFYING COMPOSITION, PRODUCTION METHODS AND USES THEREOF” (Universidade Da Beira Interior, priority 2021, published 2024).

Regarding `CC(C)CCC[C@@H](C)[C@H]1CC[C@H]2[C@@H]3CC=C4C[C@@H](O)CC[C@]4(C)[C@H]3CC[C@]12C` [cholesterol], the Log P (usually the decadic logarithm of the partition coefficient of the neutral form, usually between octanol and water) is 7.
On to `CCC(C)(C)C(=O)O[C@H]1C[C@@H](C)C=C2C=C[C@H](C)[C@H](CC[C@@H]3C[C@@H](O)CC(=O)O3)[C@H]21` [simvastatin], for which the plasma protein binding with plasma protein is 94-98%.
